The record followed here is US20240408216A1, “PROTEIN INHIBITOR OR DEGRADING AGENT, PHARMACEUTICAL COMPOSITION CONTAINING SAME AND PHARMACEUTICAL USE” (JING MEDICINE TECHNOLOGY (SHANGHAI) LTD., priority 2021, published 2024).

Molecules are shown by their SMILES.

For one test, the target named is T1, human EGFR-LTC (Homo sapiens, UniProt P00533, C797S/L858R/T790M).
T1 construct: expressed in transfected cells
T1 sequence (P00533 25-1210 T790M/C797S/L858R): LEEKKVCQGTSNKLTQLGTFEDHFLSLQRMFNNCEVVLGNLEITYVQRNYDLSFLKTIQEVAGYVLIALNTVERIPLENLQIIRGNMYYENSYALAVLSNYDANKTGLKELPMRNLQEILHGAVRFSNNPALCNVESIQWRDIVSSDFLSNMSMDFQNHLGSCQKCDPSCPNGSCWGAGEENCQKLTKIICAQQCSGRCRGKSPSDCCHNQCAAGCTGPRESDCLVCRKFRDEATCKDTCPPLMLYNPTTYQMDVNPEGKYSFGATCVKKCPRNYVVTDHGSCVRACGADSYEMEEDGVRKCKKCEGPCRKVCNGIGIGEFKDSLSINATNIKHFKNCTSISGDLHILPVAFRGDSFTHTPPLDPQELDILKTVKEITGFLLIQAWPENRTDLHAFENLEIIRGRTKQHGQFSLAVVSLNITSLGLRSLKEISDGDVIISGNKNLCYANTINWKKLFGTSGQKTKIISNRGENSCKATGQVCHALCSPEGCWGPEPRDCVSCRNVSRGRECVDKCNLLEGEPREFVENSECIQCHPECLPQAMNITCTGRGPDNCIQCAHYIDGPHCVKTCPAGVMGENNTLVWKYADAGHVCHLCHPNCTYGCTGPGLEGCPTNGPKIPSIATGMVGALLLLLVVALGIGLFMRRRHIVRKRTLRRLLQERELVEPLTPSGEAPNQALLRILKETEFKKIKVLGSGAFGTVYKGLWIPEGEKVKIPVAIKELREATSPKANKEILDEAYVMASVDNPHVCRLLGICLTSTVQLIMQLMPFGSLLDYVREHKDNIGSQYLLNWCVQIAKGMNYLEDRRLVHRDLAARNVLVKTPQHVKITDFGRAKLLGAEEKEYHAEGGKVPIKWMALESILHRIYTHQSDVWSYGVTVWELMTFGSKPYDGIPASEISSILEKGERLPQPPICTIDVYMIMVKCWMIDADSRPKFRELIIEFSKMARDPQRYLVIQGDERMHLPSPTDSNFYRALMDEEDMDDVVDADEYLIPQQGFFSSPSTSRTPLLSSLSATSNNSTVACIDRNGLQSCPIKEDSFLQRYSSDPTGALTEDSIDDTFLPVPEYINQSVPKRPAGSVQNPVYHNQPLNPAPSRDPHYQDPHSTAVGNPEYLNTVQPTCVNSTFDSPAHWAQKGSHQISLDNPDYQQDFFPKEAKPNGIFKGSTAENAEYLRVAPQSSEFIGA
The experiment in a line: EGFR protein abundance assay (Western blotting), EGFR-LTC. It counts as cell-based. As to conditions: Ba/F3 cells expressing human EGFR-LTC, 24 h, Western blot. The method, then: (§1) Mouse Ba/F3 cells stably expressing human EGFR-DTC, EGFR-LTC, or EGFR-DC were transferred to Petri dishes with RPMI-1640 medium (Gibco, Product No. 11875093) containing 10% fetal bovine serum (FBS, Biological Industries, Product No. 04-001-1A) and 0.1% penicillin/streptomycin (P/S) and incubated in an aseptic incubator at 37° C., 95% relative humidity, and 5% CO2. Cells at the logarithmic growth phase were taken and seeded at a density of 50000 cells/well in 12-well plates (Corning, Product No. 3513) containing 1 mL of medium per well. After 24 h, the compounds disclosed herein with different concentrations were added to the wells at a final DMSO concentration of 0.1%. After 24 h, cells were lysed in SDS lysis buffer (1.45 g of SDS, 0.2 g of Tris base, 6 mL of glycerol, 20 mg of bromophenol blue, 310 mg DTT; brought to 40 mL with d2H2O), and the EGFR levels were detected and analyzed by Western Blotting (immunoblotting) using standard molecular biological techniques. Cell lysates were boiled at 95° C. for 8 min, mixed and centrifuged. The total cell proteins in the lysates were subjected to SDS-PAGE (GenScript, Product No. M00654), transferred to NC membranes (GE, Product No. 1060002) by blotting, incubated in a blocking buffer (TAKARA, Product No. T7131A) at room temperature for 60 min, and co-incubated overnight at 4° C. with the following primary antibodies: anti-EGFR (#4267S, 1:1000), anti-phoso-EGFR (#3777S, 1:1000), anti-GAPDH (#5174S, 1:10000), anti-Actin (#5125 S, 1:10000) (all purchased from Cell Signaling Technology). The samples were washed three times with TBST at room temperature, each for 10 min, and then incubated for 60 minutes in a blocking buffer containing a secondary antibody (#7074S, 1:10000, purchased from Cell Signaling Technology) at room temperature. The samples were washed three times with TBST at room temperature, each for 10 min. Chemiluminescent substrates were added, and an Azure c300 system was used for imaging.
For `CCc1cc(Nc2ncc(Cl)c(Nc3ccccc3P(C)(C)=O)n2)c(OC)cc1N1CCC(N2CCN(CCC#Cc3cccc4c3CN(C3CCC(=O)NC3=O)C4=O)CC2)CC1` (single isomer, unassigned) [Example E6], the DC50 came out at 10.1 nM and the “EGFR-LTC Dmax” value is 89%.
For `CCc1cc(Nc2ncc(Cl)c(Nc3ccccc3P(C)(C)=O)n2)c(OC)cc1N1CCC(N2CCN(CCC#Cc3cccc4c3CN(C3CCC(=O)NC3=O)C4=O)CC2)CC1` (single isomer, unassigned) [Example E5], in that order: less than 1 nM and 93%.

A further test concerns BaF3 (EGFR WT). In words: Cell proliferation IC50 assay (Cell Titer GLO), BaF3 WT cells. As to conditions: Mus musculus, Ba/F3 EGFR, Table 5, 10 ng/ml EGF, 72 h. Format: cell-based. The essentials: (§2)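 Growth inhibition is measured over 72 h of continuous compound treatment in cells seeded at 2000-4000 per well.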
Background: ATP-based viability assays read luminescence as a measure of living cells.
As a reminder, the IC50 is the concentration that gives 50% inhibition. As to `CN(CCCC#Cc1cccc2c1CN(C1CCC(=O)NC1=O)C2=O)C1CC2(CCN(c3ccc(Nc4ncc(Cl)c(Nc5ccccc5P(C)(C)=O)n4)cc3Cl)CC2)C1` (stereo not drawn) [Example E14], 69 nM corresponded to half-maximal inhibition (IC50).
The same measure, in the same setting: the result for `COc1cc(N2CCC(N3CCN(CCC#Cc4cccc5c4CN(C4CCC(=O)NC4=O)C5=O)CC3)CC2)c(Cl)cc1Nc1ncc(Cl)c(Nc2ccccc2P(C)(C)=O)n1` (stereo not drawn) [Example E10] reads 101 nM; that for `COc1cc(N2CCC(N3CCC4(CCC(Oc5cccc6c5CN(C5CCC(=O)NC5=O)C6=O)CC4)C3)CC2)ccc1Nc1ncc(Cl)c(Nc2ccccc2P(C)(C)=O)n1` (stereo not drawn) [Example C-6, reference compound], 79.2 nM; that for `CCc1cc(Nc2ncc(Cl)c(Nc3ccccc3P(C)(C)=O)n2)c(OC)cc1N1CCC2(CCN(CCCCC#Cc3cccc4c3CN(C3CCC(=O)NC3=O)C4=O)CC2)CC1` (stereo not drawn) [Example E23], greater than 4000 nM.
Consider `CCc1cc(Nc2ncc(Cl)c(Nc3ccccc3P(C)(C)=O)n2)c(OC)cc1N1CCC(N2CCN(CCCCOc3cccc4c3CN(C3CCC(=O)NC3=O)C4=O)CC2)CC1` (stereo not drawn) [Example E30], for which the IC50 turned out to be 636 nM.

A further test deals with BaF3 (EGFR Del19/T790M/C797S). In words: Cell proliferation IC50 assay (Cell Titer GLO), BaF3 DTC cells. To be noted: Mus musculus, Ba/F3 EGFR-Del19/T790M/C797S, Table 5, 72 h. Format: cell-based. The procedure, abridged:
as §2
Molecule `CN(CCCC#Cc1cccc2c1CN(C1CCC(=O)NC1=O)C2=O)C1CC2(CCN(c3ccc(Nc4ncc(Cl)c(Nc5ccccc5P(C)(C)=O)n4)cc3Cl)CC2)C1` (stereo not drawn) [Example E14] returned an IC50 of 7.8 nM.
Still for that read-out and setting: the result for `COc1cc(N2CCC(N3CCN(CCC#Cc4cccc5c4CN(C4CCC(=O)NC4=O)C5=O)CC3)CC2)c(Cl)cc1Nc1ncc(Cl)c(Nc2ccccc2P(C)(C)=O)n1` (stereo not drawn) [Example E10] reads 15.5 nM; that for `COc1cc(N2CCC(N3CCC4(CCC(Oc5cccc6c5CN(C5CCC(=O)NC5=O)C6=O)CC4)C3)CC2)ccc1Nc1ncc(Cl)c(Nc2ccccc2P(C)(C)=O)n1` (stereo not drawn) [Example C-6, reference compound], 7.8 nM; that for `CCc1cc(Nc2ncc(Cl)c(Nc3ccccc3P(C)(C)=O)n2)c(OC)cc1N1CCC2(CCN(CCCCC#Cc3cccc4c3CN(C3CCC(=O)NC3=O)C4=O)CC2)CC1` (stereo not drawn) [Example E23], 9.4 nM.
Same read-out and setting: the result for `CCc1cc(Nc2ncc(Cl)c(Nc3ccccc3P(C)(C)=O)n2)c(OC)cc1N1CCC(N2CCN(CCCCOc3cccc4c3CN(C3CCC(=O)NC3=O)C4=O)CC2)CC1` (stereo not drawn) [Example E30] reads 1.6 nM.

Another test concerns human EGFR-DTC. The experiment in a line: EGFR protein abundance assay (Western blotting), EGFR-DTC. It counts as cell-based. To be noted: Ba/F3 cells expressing human EGFR-DTC, 24 h, Western blot. On the procedure: as §1
For orientation: Immunoblotting shows a protein as a band on a membrane.
With `CCc1cc(Nc2ncc(Cl)c(Nc3ccccc3P(C)(C)=O)n2)c(OC)cc1N1CCC(N2CCN(CCC#Cc3cccc4c3CN(C3CCC(=O)NC3=O)C4=O)CC2)CC1` (single isomer, unassigned) [Example E6], the DC50 was found to be 3.37 nM and the “EGFR-DTC Dmax” value worked out at 70%.
For `CCc1cc(Nc2ncc(Cl)c(Nc3ccccc3P(C)(C)=O)n2)c(OC)cc1N1CCC(N2CCN(CCC#Cc3cccc4c3CN(C3CCC(=O)NC3=O)C4=O)CC2)CC1` (single isomer, unassigned) [Example E5], in that order: 9.31 nM and 86%.

For another test, the system named is BaF3 patent. The experiment in a line: Cell proliferation IC50 assay (Cell Titer GLO), BaF3 parental cells. Format: cell-based. To be noted: Mus musculus, Table 5, 10 ng/ml mIL3, 72 h. The method, then: IC50 of compounds in the present invention was determined by Cell Titer GLO reagent from Promega. The procedures are as follows:
Tumor cells were cultured in specified medium in an incubator at 37° C. and 5% CO2. The cells were passaged periodically. Cells at the logarithmic growth phase were collected for plating at a density of 2000-4000 cells/well. The next day, the compounds of the present invention were serially diluted and added to the cells, with DMSO being the negative control and the culture media without cells being the blank control. The plate was incubated in the incubator for 72 h. The cell viability assay was performed by adding the detection reagents to the cell culture media according to Cell Titer GLO reagent instructions and detecting luminescent signals on an EnVision microplate reader (PerkinElmer).
Inhibition of cell growth by the compounds of the present invention was plotted by Prism Graphpad software for statistically calculating the IC50 of the compound of the present invention.
On to `CN(CCCC#Cc1cccc2c1CN(C1CCC(=O)NC1=O)C2=O)C1CC2(CCN(c3ccc(Nc4ncc(Cl)c(Nc5ccccc5P(C)(C)=O)n4)cc3Cl)CC2)C1` (stereo not drawn) [Example E14], for which the IC50 was 84.2 nM.
Still for that read-out and setting: the same measure for `COc1cc(N2CCC(N3CCN(CCC#Cc4cccc5c4CN(C4CCC(=O)NC4=O)C5=O)CC3)CC2)c(Cl)cc1Nc1ncc(Cl)c(Nc2ccccc2P(C)(C)=O)n1` (stereo not drawn) [Example E10]: 54.9 nM; for `COc1cc(N2CCC(N3CCC4(CCC(Oc5cccc6c5CN(C5CCC(=O)NC5=O)C6=O)CC4)C3)CC2)ccc1Nc1ncc(Cl)c(Nc2ccccc2P(C)(C)=O)n1` (stereo not drawn) [Example C-6, reference compound]: 93 nM; for `CCc1cc(Nc2ncc(Cl)c(Nc3ccccc3P(C)(C)=O)n2)c(OC)cc1N1CCC2(CCN(CCCCC#Cc3cccc4c3CN(C3CCC(=O)NC3=O)C4=O)CC2)CC1` (stereo not drawn) [Example E23]: greater than 4000 nM.
The same measure, in the same setting: the same measure for `CCc1cc(Nc2ncc(Cl)c(Nc3ccccc3P(C)(C)=O)n2)c(OC)cc1N1CCC(N2CCN(CCCCOc3cccc4c3CN(C3CCC(=O)NC3=O)C4=O)CC2)CC1` (stereo not drawn) [Example E30]: 410 nM.

For the next test, the system named is BaF3 (EGFR L858R/T790M/C797S). The experiment in a line: Cell proliferation IC50 assay (Cell Titer GLO), BaF3 LTC cells. Format: cell-based. As to conditions: Mus musculus, Ba/F3 EGFR, Table 5, 72 h. The procedure, abridged:
as §2
On to `CN(CCCC#Cc1cccc2c1CN(C1CCC(=O)NC1=O)C2=O)C1CC2(CCN(c3ccc(Nc4ncc(Cl)c(Nc5ccccc5P(C)(C)=O)n4)cc3Cl)CC2)C1` (stereo not drawn) [Example E14], for which inhibition was half-maximal at 55.2 nM (IC50).
The same measure, in the same setting: the result for `COc1cc(N2CCC(N3CCN(CCC#Cc4cccc5c4CN(C4CCC(=O)NC4=O)C5=O)CC3)CC2)c(Cl)cc1Nc1ncc(Cl)c(Nc2ccccc2P(C)(C)=O)n1` (stereo not drawn) [Example E10] reads 28.4 nM; that for `COc1cc(N2CCC(N3CCC4(CCC(Oc5cccc6c5CN(C5CCC(=O)NC5=O)C6=O)CC4)C3)CC2)ccc1Nc1ncc(Cl)c(Nc2ccccc2P(C)(C)=O)n1` (stereo not drawn) [Example C-6, reference compound], 33.6 nM; that for `CCc1cc(Nc2ncc(Cl)c(Nc3ccccc3P(C)(C)=O)n2)c(OC)cc1N1CCC2(CCN(CCCCC#Cc3cccc4c3CN(C3CCC(=O)NC3=O)C4=O)CC2)CC1` (stereo not drawn) [Example E23], 106 nM.
On the same count and under the same terms, the same measure for `CCc1cc(Nc2ncc(Cl)c(Nc3ccccc3P(C)(C)=O)n2)c(OC)cc1N1CCC(N2CCN(CCCCOc3cccc4c3CN(C3CCC(=O)NC3=O)C4=O)CC2)CC1` (stereo not drawn) [Example E30]: 11.9 nM.

The next test concerns A431. The experiment in a line: Cell proliferation IC50 assay (Cell Titer GLO), A431 cells. Format: cell-based. To be noted: Homo sapiens, A-431; Table 5; A431, 72 h; read-out: A431 IC50. The essentials: as §2
Regarding `CN(CCCC#Cc1cccc2c1CN(C1CCC(=O)NC1=O)C2=O)C1CC2(CCN(c3ccc(Nc4ncc(Cl)c(Nc5ccccc5P(C)(C)=O)n4)cc3Cl)CC2)C1` (stereo not drawn) [Example E14], the 50% inhibitory concentration (IC50) came out at 377 nM.
The same measure, in the same setting: the same measure for `COc1cc(N2CCC(N3CCN(CCC#Cc4cccc5c4CN(C4CCC(=O)NC4=O)C5=O)CC3)CC2)c(Cl)cc1Nc1ncc(Cl)c(Nc2ccccc2P(C)(C)=O)n1` (stereo not drawn) [Example E10]: 1210 nM; for `COc1cc(N2CCC(N3CCC4(CCC(Oc5cccc6c5CN(C5CCC(=O)NC5=O)C6=O)CC4)C3)CC2)ccc1Nc1ncc(Cl)c(Nc2ccccc2P(C)(C)=O)n1` (stereo not drawn) [Example C-6, reference compound]: 342 nM; for `CCc1cc(Nc2ncc(Cl)c(Nc3ccccc3P(C)(C)=O)n2)c(OC)cc1N1CCC2(CCN(CCCCC#Cc3cccc4c3CN(C3CCC(=O)NC3=O)C4=O)CC2)CC1` (stereo not drawn) [Example E23]: greater than 4000 nM.
On the same count and under the same terms, the result for `CCc1cc(Nc2ncc(Cl)c(Nc3ccccc3P(C)(C)=O)n2)c(OC)cc1N1CCC(N2CCN(CCCCOc3cccc4c3CN(C3CCC(=O)NC3=O)C4=O)CC2)CC1` (stereo not drawn) [Example E30] reads 1020 nM.
